In data set [1] the test system is Plasmodium falciparum 3D7/MRA-102. Briefly: In vitro antiplasmodial activity. Format: cell-based. The conditions noted are these: for IC50: chloroquine-sensitive strain 3D7/MRA-102, 48 h incubation, n = 3, read-out: Pf IC50 ± SD; for antiplasmodial activity in words: P. falciparum 3D7/MRA-102.
Data set [2] in a line: Lipophilicity determination by RP-HPLC (log of capacity factor k). The format is physicochemical. The conditions noted are these: C18, isocratic methanol 72%/water 28%. The procedure: Among the important parameters characterizing the physicochemical properties of the compounds, we studied the lipophilicity and electronic relations in the molecule. […] The lipophilicity was determined using RP-HPLC as the logarithm of capacity factor k. The retention times of individual compounds were determined under isocratic conditions, with methanol as an organic modifier in the mobile phase using end-capped non-polar C18 stationary RP columns. In addition, the lipophilicity expressed as log P and Clog P was calculated using two commercially available programs: ACD/Percepta ver.
A chromatographic column Symmetry® C18 5 μm, 4.6 × 250 mm, Part No. W21751W016 (Waters Corp., Milford, MA, USA) was used. The HPLC separation process was monitored by the EZ CHROM Elite® software ver. 3.2.0 (Hitachi High Technologies America). The total flow of the column was 1.0 mL/min, injection 10 μL, column temperature 40 °C, and sample temperature 10 °C. The detection wavelength 214 nm was chosen. A KI methanolic solution was used for the dead time (tD) determination. Retention times (tR) were measured in minutes. […] The capacity factors were calculated according to the formula k = (tR − tD)/tD, where tR is the retention time of the solute and tD is the dead time obtained using an unretained analyte. Each experiment was repeated three times.

The test system of data set [3] is Mycobacterium tuberculosis H37Ra/ATCC 25177. Set-up: method as in PMID 30087309, PMID 32916979. The following applies: M. tuberculosis H37Ra/ATCC 25177; cited from earlier work.
A further data set deals with THP1-Blue™ NF-κB cells. The following applies: read-out: cytotoxicity IC50; human monocytic leukemia cell line THP1-Blue™ NF-κB; cited from earlier work.
The mark [4] stands for this setting: Plasmodium falciparum, 3D7, 48 h.

“And” between values parts separate entries of the source, which are not always exact repeats. Equal values may be shown once. Read-outs that look alike come from different tables or passages of the source. Where only a bound is given, the exact number is not on record here.

As for `COc1ccc([N+](=O)[O-])cc1NC(=O)/C=C/c1ccccc1` [Compound 16], the IC50 in data set [1] (setting [4]) was > 35 µM. The log k in data set [2] came to 0.1581. In addition, the “Mtb MIC” value in data set [3] is >859 µM.

On to `O=C(/C=C/c1ccccc1)Nc1cc(Br)ccc1F` [Compound 20], for which, in data set [1] (setting [4]), the IC50 was > 35 µM. In data set [2], this compound yielded a log k of 0.4875. In addition, the “Mtb MIC” value in data set [3] was 199 µM.

For the compound `O=C(/C=C/c1ccccc1)Nc1cc(Cl)c(Cl)cc1Cl` [Compound 34], in data set [1] (setting [4]), the IC50 was > 35 µM. In data set [2], the log k was found to be 0.8373.

`Cc1ccc(NC(=O)/C=C/c2ccccc2)cc1` [Compound 3]: the IC50 in data set [1] (setting [4]) was > 35 µM. In data set [2], this compound had a log k of 0.2640. Moreover, the “Mtb MIC” value in data set [3] is 134 µM.

Regarding `O=C(/C=C/c1ccccc1)Nc1ccc(Br)c(Cl)c1` [Compound 25], the IC50 is 6.5 ± 1 µM in the data set with THP1-Blue™ NF-κB cells and 8.2 ± 4.7 µM in data set [1] (setting [4]). The same compound yielded a log k in data set [2] of 0.6611. For the same compound, the “Mtb MIC” value in data set [3] is >383 µM.

`O=C(/C=C/c1ccccc1)Nc1c(Br)cc(C(F)(F)F)cc1Br` [Compound 36, (2E)-N-[2,6-dibromo-4-(trifluoromethyl)-phenyl]-3-phenylprop-2-enamide]: the IC50 in data set [1] (setting [4]) worked out at 2 ± 1.9 µM. The compound also displayed a log k in data set [2] of 0.4321. In addition, the “Mtb MIC” value in data set [3] was >287 µM.

`O=C(/C=C/c1ccccc1)Nc1cc(Cl)c(Cl)c(Cl)c1` [Compound 35, (2E)-3-phenyl-N-(3,4,5-trichlorophenyl)prop-2-enamide]: in data set [1] (setting [4]), the IC50 came out at 13 ± 3.8 µM. In data set [2], this compound had a log k of 0.9671. Also, in data set [3], the “Mtb MIC” value was >395 µM.

For `O=C(/C=C/c1ccccc1)Nc1ccc(Br)cc1C(F)(F)F` [Compound 31], the IC50 in data set [1] (setting [4]) is > 35 µM. This compound also gave a log k in data set [2] of 0.4683. In addition, in data set [3], the “Mtb MIC” value is >348 µM.

Regarding `O=C(/C=C/c1ccccc1)Nc1cc(Cl)ccc1Cl` [Compound 9], the IC50 in data set [1] (setting [4]) was > 35 µM. In data set [2], this compound gave a log k of 0.5799. The “Mtb MIC” value in data set [3] is 876 µM.

In the case of `O=C(/C=C/c1ccccc1)Nc1ccc(Cl)c(Cl)c1` [Compound 11], the IC50 is 6.28 ± 2.32 µM in the data set on THP1-Blue™ NF-κB cells and > 35 µM in data set [1] (setting [4]). Further, the log k in data set [2] is 0.6821. Further, the “Mtb MIC” value in data set [3] is 27.4 µM.

With `O=C(/C=C/c1ccccc1)Nc1c(F)cc(F)cc1F` [Compound 32, (2E)-3-phenyl-N-(2,4,6-trifluorophenyl)-prop-2-enamide], the IC50 in data set [1] (setting [4]) is > 35 µM. Moreover, the log k in data set [2] was −0.0831. Moreover, the “Mtb MIC” value in data set [3] was >462 µM.

With `O=C(/C=C/c1ccccc1)Nc1cc(F)ccc1Br` [Compound 23, (2E)-N-(2-bromo-5-fluorophenyl)-3-phenylprop-2-enamide], the IC50 in data set [1] (setting [4]) stood at 3.8 ± 0.61 µM. In data set [2], the log k worked out at 0.4588. For the same compound, in data set [3], the “Mtb MIC” value was 199 µM.

In the case of `NNC(=O)c1ccncc1` [INH, isoniazid, reference compound], in data set [3], the “Mtb MIC” value is 36.6 µM.

On to `O=C(/C=C/c1ccccc1)Nc1ccc(Br)cc1Cl` [Compound 24, (2E)-N-(4-bromo-2-chlorophenyl)-3-phenylprop-2-enamide], for which, in data set [1] (setting [4]), the IC50 is 0.58 ± 0.002 µM. Besides, the log k in data set [2] was determined as 0.6710. The “Mtb MIC” value in data set [3] was >766 µM.

Consider `O=C(/C=C/c1ccccc1)Nc1cc(C(F)(F)F)cc(C(F)(F)F)c1` [Compound 15, (2E)-N-[3,5-bis(trifluoromethyl)phenyl]-3-phenylprop-2-enamide], for which the values for the IC50 (with THP1-Blue™ NF-κB cells; in data set [1] (setting [4])) were 2.17 ± 1.19 µM and 6.5 ± 3.6 µM, respectively. In data set [2], this compound had a log k of 0.9814. In addition, in data set [3], the “Mtb MIC” value is 22.3 µM.

`O=C(/C=C/c1ccccc1)Nc1cc(Cl)ccc1F` [Compound 19]: in data set [1] (setting [4]), the half-inhibitory concentration (IC50) was 16 ± 4.2 µM. In addition, the log k in data set [2] was 0.36 and 0.3692. Also, the “Mtb MIC” value in data set [3] is >465 µM.

Consider `O=C(/C=C/c1ccccc1)Nc1ccc([N+](=O)[O-])c(C(F)(F)F)c1` [Compound 18, (2E)-N-[4-nitro-3-(trifluoromethyl)phenyl]-3-phenylprop-2-enamide], for which, in data set [1] (setting [4]), the IC50 is 2.2 ± 1.9 µM. Further, the log k in data set [2] is recorded as 0.5004. Further, in data set [3], the “Mtb MIC” value was >381 µM.

As for `O=C(/C=C/c1ccccc1)Nc1cc(F)c(F)c(F)c1` [Compound 33], the IC50 in data set [1] (setting [4]) is 4.3 ± 2.4 µM. The compound also displayed a log k in data set [2] of 0.4893. The “Mtb MIC” value in data set [3] was >462 µM.

On to `O=C(/C=C/c1ccccc1)Nc1ccc(C(F)(F)F)c(F)c1` [Compound 22], for which the IC50 in data set [1] (setting [4]) turned out to be 9.3 ± 5.3 µM. The compound also displayed a log k in data set [2] of 0.5789. Also, in data set [3], the “Mtb MIC” value is >414 µM.

Take `O=C(/C=C/c1ccccc1)Nc1c(Cl)cccc1Cl` [Compound 10]: the IC50 in data set [1] (setting [4]) was > 35 µM. This compound also returned a log k in data set [2] of 0.0632. For the same compound, in data set [3], the “Mtb MIC” value was 876 µM.

For `O=C(/C=C/c1ccccc1)Nc1ccc(Cl)cc1Cl` [Compound 8], in data set [1], the “antiplasmodial activity in words” value was “inactive”. Moreover, in data set [1] (setting [4]), the IC50 is > 35 µM. The compound also gave a log k in data set [2] of 0.5278.

Regarding `O=C(/C=C/c1ccccc1)Nc1cc(C(F)(F)F)ccc1Br` [Compound 28], the IC50 in data set [1] (setting [4]) was > 35 µM. The compound further registered a log k in data set [2] of 0.5561. In addition, the “Mtb MIC” value in data set [3] is >348 µM.

`O=C(/C=C/c1ccccc1)Nc1cc(C(F)(F)F)ccc1Cl` [Compound 27]: in data set [1] (setting [4]), the IC50 was > 35 µM. This compound also had a log k in data set [2] of 0.6178. In addition, the “Mtb MIC” value in data set [3] is 785 µM.

Consider `O=C(/C=C/c1ccccc1)Nc1ccc(Br)c(F)c1` [Compound 21], for which, in data set [1] (setting [4]), the IC50 came to 10.3 ± 4.6 µM. The “Mtb MIC” value in data set [3] was >414 µM.

On to `O=C(/C=C/c1ccccc1)Nc1c(Br)cccc1Br` [Compound 14], for which, in data set [1] (setting [4]), the IC50 was > 35 µM. In addition, the log k in data set [2] stood at 0.0992. Besides, the “Mtb MIC” value in data set [3] is 167 µM.

Turning to `O=C(/C=C/c1ccccc1)Nc1cccc(C(F)(F)F)c1` [Compound 6], the IC50 was 11.6 ± 1.13 µM in the data set on THP1-Blue™ NF-κB cells and > 35 µM in data set [1] (setting [4]). Besides, in data set [2], the log k is reported as 0.4859. Moreover, the “Mtb MIC” value in data set [3] was 27.5 µM.

Regarding `O=C(/C=C/c1ccccc1)Nc1ccc(Cl)cc1Br` [Compound 26], the IC50 in data set [1] (setting [4]) was > 35 µM. Also, in data set [2], the log k was 0.5476. In addition, the “Mtb MIC” value in data set [3] was >383 µM.

For `O=C(/C=C/c1ccccc1)Nc1ccc(Br)cc1Br` [Compound 13], the “antiplasmodial activity in words” value in data set [1] is “inactive”. Moreover, the IC50 in data set [1] (setting [4]) was > 35 µM. In data set [2], this compound returned a log k of 0.6152. Further, in data set [3], the “Mtb MIC” value was >339 µM.

With `O=C(/C=C/c1ccccc1)Nc1ccc([N+](=O)[O-])cc1C(F)(F)F` [Compound 17], the IC50 in data set [1] (setting [4]) is > 35 µM. Moreover, the log k in data set [2] is reported as 0.3794. The “Mtb MIC” value in data set [3] was >381 µM.

In the case of `O=C(/C=C/c1ccccc1)Nc1ccc(F)cc1C(F)(F)F` [Compound 29], in data set [1] (setting [4]), the IC50 is > 35 µM. This compound returned a log k in data set [2] of 0.1607. Moreover, the “Mtb MIC” value in data set [3] is >414 µM.

With `O=C(/C=C/c1ccccc1)Nc1ccc(Cl)cc1C(F)(F)F` [Compound 30], the IC50 in data set [1] (setting [4]) is > 35 µM. Also, in data set [2], the log k was 0.4113. In addition, the “Mtb MIC” value in data set [3] is >394 µM.

Consider `O=C(/C=C/c1ccccc1)Nc1cc(Cl)cc(Cl)c1` [Compound 12], for which the half-inhibitory concentration (IC50) was 2.43 ± 1.06 µM in the data set with THP1-Blue™ NF-κB cells and > 35 µM in data set [1] (setting [4]). Moreover, in data set [2], the log k came out at 0.8155. The “Mtb MIC” value in data set [3] is 27.4 µM.

Regarding `Cc1ccc(C)c(NC(=O)/C=C/c2ccccc2)c1` [Compound 7], the IC50 in data set [1] (setting [4]) is > 35 µM. The same compound yielded a log k in data set [2] of 0.2691. Moreover, in data set [3], the “Mtb MIC” value was 254 µM.

In the case of `O=C(/C=C/c1ccccc1)Nc1c(Br)cc(F)c(Cl)c1Br` [Compound 37], in data set [1] (setting [4]), the IC50 was > 35 µM. In data set [2], this compound gave a log k of 0.3139. In addition, the “Mtb MIC” value in data set [3] is >298 µM.

In the case of `CCN(CC)CCCC(C)Nc1ccnc2cc(Cl)ccc12` (stereo not shown) [CQ, chloroquine, reference compound], in data set [1] (setting [4]), the IC50 was 0.5 ± 0.2 µM.

Take `Cc1cccc(NC(=O)/C=C/c2ccccc2)c1` [Compound 2, (2E)-N-(3-methylphenyl)-3-phenyl-prop-2-enamide]: the values for the IC50 in data set [1] (setting [4]) and in data set [1] were 21.6 µM and 21.9 ± 6.3 µM, respectively. In addition, the log k in data set [2] is recorded as 0.2729. Also, the “Mtb MIC” value in data set [3] is 67.4 µM.

One may read the IC50 as the concentration that inhibits the measured activity by half.

The values are drawn from PMC9698057, “Insights into Antimalarial Activity of N-Phenyl-Substituted Cinnamanilides” (Molecules, 2022).
